Results taken from publication PMC6678097, “Machilin A Inhibits Tumor Growth and Macrophage M2 Polarization Through the Reduction of Lactic Acid” (Cancers, 2019).

How the values were obtained:
[1] = biological target: T1, purified recombinant LDHA (Homo sapiens, UniProt P00338); experiment: In vitro LDH activity assay with purified recombinant LDHA; assay type: biochemical
T1 construct: made in house
Procedure: (§1) A purification of recombinant LDHA was performed as described previously. LDH activity was determined by measuring the decrease of absorbance at 340 nm due to the oxidation of NADH in 20 mM HEPES-K^+, 0.05% bovine serum albumin (BSA), 20 μM NADH, and 2 mM pyruvate (Sigma-Aldrich, St. Louis, MO, USA) at a pH of 7.2 using a spectrofluorometer (Spectramax M2, Molecular Devices, San Jose, CA, USA; excitation 340 nm; emission 460 nm), as described previously. Ten nanograms of recombinant LDHA protein were used in the in vitro LDH activity assay. One microgram of total protein from cell or tissue lysates was used for intracellular or in vivo LDH assays.

DLD-1 = experiment: Lactate production assay; assay type: cell-based, human; conditions: normoxic
Procedure: (§2) Cellular lactate production was measured using a lactate fluorometric assay kit (Biovision, Milpitas, CA, USA) as described previously. Phenol red-free DMEM medium without FBS was added to a six-well plate containing subconfluent cells which were then incubated for 1 h at 37 °C. After incubation, the medium of each well was tested using a lactate assay kit (Biovision, Milpitas, CA, USA).

HCC-95 = experiment: Lactate production assay; assay type: cell-based, human; conditions: normoxic
Procedure: as §2

HT29 = experiment: Lactate production assay; assay type: cell-based, human; conditions: for Lactate (production): normoxic
Procedure: as §2

Hep3B = experiment: Lactate production assay; assay type: cell-based, human; conditions: normoxic
Procedure: as §2

HepG2 = experiment: Lactate production assay; assay type: cell-based, human; conditions: normoxic
Procedure: as §2

Huh7 = experiment: Lactate production assay; assay type: cell-based, human; conditions: normoxic
Procedure: as §2

MCF7 = experiment: Lactate production assay; assay type: cell-based, human; conditions: normoxic
Procedure: as §2

NCI-H1793 = experiment: Lactate production assay; assay type: cell-based, human; conditions: normoxic
Procedure: as §2

R.K.O = experiment: Lactate production assay; assay type: cell-based, human; conditions: normoxic
Procedure: as §2

WiDr = experiment: Lactate production assay; assay type: cell-based, human; conditions: normoxic
Procedure: as §2

LLC tumors = experiment: Tumor allograft model, LLC cells (tumor growth, immunohistochemistry); assay type: in vivo, C57BL/6 mice
Procedure: (§3) LLC and CT26 cells were suspended separately in PBS (5 × 10^5 cells/100 µL PBS) and inoculated in subcutaneously on the back of 7-week-old C57BL/6 mice and BALB/c mice respectively (Orient Bio Inc., Seongnam, Korea; n = 7). One day after the inoculation with tumor cells, mice of the control group (n = 7) were intraperitoneally administrated 100 µL of PBS per day for 18 days. Each of the MA-treated mice were intraperitoneally administrated 0.02, 0.2, or 1 mg MA, respectively, in 100 µL PBS per 20 g body weight, each day for 18 days. All mice were euthanized 19 days after inoculation with the tumor cells, and the tumors were excised and weighed. Length (l) and width (w) of each tumor were measured using a caliper, and the respective volume (V) was calculated according to the formula V = [(l × w^2)/2]. Tumors were immediately removed from euthanized mice and prepared for histological examinations. To test liver and kidney toxicity of MA, at the end of the in vivo allograft experiment blood was collected from each mouse and serum was separated. Biochemical analyses of aspartate aminotransferase (AST), alanine aminotransferase (ALT), creatinine, and blood urea nitrogen (BUN) were performed using a commercial service (Green Cross Co., Yongin, Korea). All experimental procedures followed the Guidelines for the Care and Use of Laboratory Animals of the National Institutes of Health of Korea, and were approved by the Institutional Animal Care and Use Committee of Pusan National University, Republic of Korea (PNU-2018-1954, Date of approval: 27th June 2018).
Tumor specimens were immediately removed from euthanized mice, fixed in PBS with 3.7% formalin, and embedded in paraffin for immunohistochemical analyses. The paraffin sections were immunostained using an antibody specific to the endothelial cell marker CD31 (ab28364, Abcam, Cambridge, UK), macrophage marker CD68 (ab125212, Abcam, Cambridge, UK), and M2 phenotype macrophage marker CD206 (ab64693, Abcam, Cambridge, UK). The staining was visualized using a Dako EnVision kit (Dako, Santa Clara, CA, USA), and counterstained with hematoxylin.

CT26 tumors = experiment: Tumor allograft model, CT26 cells; assay type: in vivo, BALB/c mice; conditions: 1, 10, or 50 µg/g body weight intraperitoneally daily
Procedure: as §3, with “All experimental procedures followed the Guidelines for the Care and Use of Laboratory Animals of the National Institutes of Health of Korea, and were approved by the Institutional Animal Care and Use Committee of Pusan National University, Republic of Korea (PNU-2018-1954, Date of approval: 27th June 2018).” left out

phospholipase Cγ1 = system: phospholipase Cγ1; design: method as in PMID 15554262; conditions: cited from earlier work
[2] = system: human liver cytochrome P450 1A1 (CYP1A1); conditions: cited from earlier work
LDHA = LDHA (Homo sapiens, UniProt P00338); experiment: Intracellular LDH activity in lysates of MA-treated cancer cells; assay type: cell-based; design: One microgram of total protein from cell or tissue lysates was used for intracellular or in vivo LDH assays; endogenous in cells; host or cells: WiDr, DLD-1, RKO, HT29, MCF7, Huh-7, HepG2, Hep3B, HCC-95, NCI-H1793; conditions: for IC50: normoxic
Procedure: as §1

C[C@H](Cc1ccc2c(c1)OCO2)[C@@H](C)Cc1ccc2c(c1)OCO2 [MA, bis(3,4-methylenedioxy)-8,8’-lignan]
mode of inhibition of LDHA activity ([1]; data not shown): competitive inhibition | IC50 ([1]; purified recombinant LDHA, read-out: inhibitory concentration (IC50) for LDHA activity): 84 µM | Lactate (production) (DLD-1; MA 10 µM): 3680 ± 90 µM | Lactate (production) (DLD-1; MA 50 µM): 2940 ± 170 µM | Lactate (production) (HCC-95; MA 10 µM): 2250 ± 160 µM | Lactate (production) (HCC-95; MA 50 µM): 1760 ± 100 µM | Lactate (production) (HT29; MA 10 µM): 3420 ± 370 µM | Lactate (production) (HT29; MA 50 µM): 2730 ± 40 µM | increase of lactate production in hypoxic condition (HT29; machilin A 30 μM, hypoxia): significantly reduced | Lactate (production) (Hep3B; MA 10 µM): 1120 ± 40 µM | Lactate (production) (Hep3B; MA 50 µM): 730 ± 10 µM | Lactate (production) (HepG2; MA 10 µM): 510 ± 60 µM | Lactate (production) (HepG2; MA 50 µM): 470 ± 70 µM | Lactate (production) (Huh7; MA 10 µM): 1140 ± 320 µM | Lactate (production) (Huh7; MA 50 µM): 670 ± 150 µM | Lactate (production) (MCF7; MA 10 µM): 1070 ± 150 µM | Lactate (production) (MCF7; MA 50 µM): 770 ± 190 µM | Lactate (production) (NCI-H1793; MA 10 µM): 2360 ± 260 µM | Lactate (production) (NCI-H1793; MA 50 µM): 2040 ± 380 µM | Lactate (production) (R.K.O; MA 10 µM): 2760 ± 60 µM | Lactate (production) (R.K.O; MA 50 µM): 2480 ± 60 µM | Lactate (production) (WiDr; MA 10 µM): 3220 ± 50 µM | Lactate (production) (WiDr; MA 50 µM): 2700 ± 60 µM | expression of CD206 in macrophages in tumor tissues (LLC tumors; LLC tumors of mice): markedly inhibited | formation of new vessels in tumors (CD31) (LLC tumors; LLC tumors of mice): suppressed the formation of new vessels | presence of macrophages that infiltrated tumor tissues (CD68) (LLC tumors; LLC tumors of mice): no change | volume, weight, and size of tumors (LLC tumors; LLC, 1, 10, or 50 µg/g body weight intraperitoneally daily): significantly reduced | volume, weight, and size of tumors (CT26 tumors): significantly reduced | effect on phospholipase Cγ1 (phospholipase Cγ1): inhibiting phospholipase Cγ1 | inhibitory effect on drug metabolism [2]: selective inhibitory effect | IC50 (LDHA; DLD-1 cells): 129 ± 24.8 µM | IC50 (LDHA; HCC-95 cells): 112 ± 10.1 µM | increase of LDHA activity in hypoxic condition (LDHA; HT29, machilin A 30 μM, hypoxia): significantly reduced | IC50 (LDHA; HT29 cells): 48.4 ± 4.33 µM | IC50 (LDHA; Hep3B cells): 48.3 ± 4.13 µM | IC50 (LDHA; HepG2 cells): 101 ± 40.5 µM | IC50 (LDHA; Huh7 cells): 85.1 ± 20.9 µM | IC50 (LDHA; MCF-7 cells): 61.2 ± 3.02 µM | IC50 (LDHA; NCI-H1793 cells): 64 ± 5.61 µM | IC50 (LDHA; RKO cells): 73.7 ± 20.7 µM | IC50 (LDHA; WiDr cells): 61.9 ± 8.02 µM
